Measurements as given in US20060069132A1, “Azolecarboxamide herbicides” (priority 2004, published 2006).

Experiments:
wheat = assay: Test B postemergence herbicide test; assay type: in vivo, Triticum aestivum; design: key to Wheat plant response rating: 0 = no effect, 100 = complete control; settings: postemergence
Outline: (§1)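 Greenhouse test; postemergence application to plants at 1–4 leaves (2–18 cm); paddy species at 2 leaves; evaluated visually vs controls at 13–15 days; scale 0–100 (100 = complete control).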

barnyardgrass [1] = assay: Test B flooded paddy test; assay type: in vivo, Echinochloa crus-galli; settings: 1000 g ai/ha, scale 0 to 100 (0 no effect, 100 complete control)
Outline: (§2)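 Read-out: visual comparison with controls, scored 0 to 100, where 100 means complete control and 0 no effect. Formulated chemicals were applied postemergence to plants 2–18 cm tall (1- to 4-leaf), or to flooded-paddy plants at the 2-leaf stage, then held 13 to 15 days under glass.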

velvetleaf [2] = assay: Test A pre-/postemergence herbicide test; assay type: in vivo, Abutilon theophrasti
Outline: (§3)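 Sandy loam soil given preemergence directed spray; plants at 2 to 10 cm, one- to two-leaf stage, sprayed to runoff postemergence, compounds in non-phytotoxic solvent with surfactant. Injury rated visually versus untreated controls after about ten greenhouse days, 0 (no effect) to 100 (complete control); dash means not tested.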

barnyardgrass [3] = assay: Test A pre-/postemergence herbicide test; assay type: in vivo, Echinochloa crus-galli
Outline: as §3

blackgrass = assay: Test B postemergence herbicide test; assay type: in vivo, Alopecurus myosuroides; settings: postemergence
Outline: as §2

ducksalad = assay: Test B flooded paddy test; assay type: in vivo, Heteranthera limosa; settings: 1000 g ai/ha, scale 0 to 100 (0 no effect, 100 complete control)
Outline: as §2

Surinam grass = assay: Test B pre-/postemergence herbicide test; assay type: in vivo, Urochloa decumbens; settings: for Surinam Grass plant response rating: postemergence
Outline: (§4)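 Herbicidal effect was judged by eye on a 0–100 scale after plants stood 13 to 15 days in the greenhouse following pre- or postemergence treatment with surfactant-containing formulations.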

large crabgrass [4] = assay: Test A pre-/postemergence herbicide test; assay type: in vivo, Digitaria sanguinalis
Outline: as §3

wild oat = assay: Test B postemergence herbicide test; assay type: in vivo, Avena fatua; settings: postemergence
Outline: as §1

[5] = tested on: small flower umbrella sedge; assay: Test B flooded paddy test; assay type: in vivo, Cyperus difformis; settings: 1000 g ai/ha, scale 0 to 100 (0 no effect, 100 complete control)
Outline: as §2

morningglory [6] = assay: Test B pre-/postemergence herbicide test; assay type: in vivo, Ipomoea coccinea; settings: for Morningglory plant response rating: postemergence
Outline: (§5)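 Pre: seeds sown, then sprayed. Post: 1–4-leaf plants (2–18 cm) sprayed at the same time. Paddy: flooded, treated at 2-leaf stage. Formulation: non-phytotoxic solvent with surfactant. Greenhouse 13–15 days; visual 0–100 score relative to controls.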

cocklebur = assay: Test B pre-/postemergence herbicide test; assay type: in vivo, Xanthium strumarium; settings: for Cocklebur plant response rating: postemergence
Outline: as §5

redroot pigweed = assay: Test A pre-/postemergence herbicide test; assay type: in vivo, Amaranthus retroflexus
Outline: as §3

large crabgrass [7] = assay: Test B pre-/postemergence herbicide test; assay type: in vivo, Digitaria sanguinalis; settings: for Crabgrass, Large plant response rating: postemergence
Outline: as §4

rice [8] = assay: Test B pre-/postemergence herbicide test; assay type: in vivo, Oryza sativa; settings: preemergence
Outline: as §4

giant foxtail [9] = assay: Test A pre-/postemergence herbicide test; assay type: in vivo, Setaria faberi
Outline: as §3

pigweed = assay: Test B pre-/postemergence herbicide test; assay type: in vivo, Amaranthus retroflexus; settings: for Pigweed plant response rating: postemergence
Outline: as §4

morningglory [10] = assay: Test A pre-/postemergence herbicide test; assay type: in vivo, Ipomoea spp.
Outline: as §3

lambsquarters = assay: Test B pre-/postemergence herbicide test; assay type: in vivo, Chenopodium album; settings: for Lambsquarters plant response rating: postemergence
Outline: as §4

corn = assay: Test B pre-/postemergence herbicide test; assay type: in vivo, Zea mays; settings: for Corn plant response rating: postemergence
Outline: as §4

barnyardgrass [11] = assay: Test B pre-/postemergence herbicide test; assay type: in vivo, Echinochloa crus-galli; settings: for Barnyardgrass plant response rating: postemergence
Outline: as §5

rice [12] = assay: Test B flooded paddy test; assay type: in vivo, Oryza sativa; settings: 1000 g ai/ha, scale 0 to 100 (0 no effect, 100 complete control)
Outline: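 Treated at 2-leaf (paddy) or 1–4-leaf, 2–18 cm (postemergence); greenhouse 13–15 d; visual score vs control, 0 none to 100 complete control; dash = not tested.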

giant foxtail [13] = assay: Test B pre-/postemergence herbicide test; assay type: in vivo, Setaria faberi; settings: for Foxtail, Giant plant response rating: postemergence
Outline: as §4

velvetleaf [14] = assay: Test B pre-/postemergence herbicide test; assay type: in vivo, Abutilon theophrasti; settings: for Velvetleaf plant response rating: postemergence
Outline: as §4

[15] = 125 g ai/ha, visual rating, scale 0 (no effect) to 100 (complete control)
[16] = 500 g ai/ha, scale 0 to 100, 0 is no effect, 100 is complete control
[17] = Postemergence, 500 g ai/ha, 0 to 100 scale, 0 no effect, 100 complete control
[18] = Postemergence, 2000 g ai/ha, 0 to 100 scale, 0 no effect, 100 complete control
[19] = Preemergence, 2000 g ai/ha, visual rating, 0 to 100 scale (0 no effect, 100 complete control)
[20] = preemergence, 500 g ai/ha, visual injury, 0 to 100 scale (0 no effect, 100 complete control)
[21] = 125 g ai/ha, 0 is no effect, 100 is complete control, preemergence
[22] = 500 g ai/ha, visual rating, 0 = no effect, 100 = complete control, preemergence

Structure (SMILES): C#CCOC(=O)c1cccc(NC(=O)c2cc(C(C)(C)C)nn2C)n1 [Compound 317]
- Wheat plant response rating (wheat; [15]): 0
- Wheat plant response rating (wheat; [16]): 0
- Barnyardgrass plant response rating (barnyardgrass [1]): 0
- Velvetleaf plant response rating (velvetleaf [2]; [17]): 0
- Plant response rating, Velvetleaf (velvetleaf [2]; [18]): 0
- Velvetleaf plant response rating (velvetleaf [2]; [19]): 30
- Velvetleaf plant response rating (velvetleaf [2]; [20]): 0
- Barnyardgrass plant response rating (barnyardgrass [3]; [17]): 0
- Plant response rating, Barnyardgrass (barnyardgrass [3]; [18]): 0
- Barnyardgrass plant response rating (barnyardgrass [3]; [19]): 0
- Barnyardgrass plant response rating (barnyardgrass [3]; [20]): 0
- Blackgrass plant response rating (blackgrass; [15]): 0
- Blackgrass plant response rating (blackgrass; [16]): 0
- Ducksalad plant response rating (ducksalad): 0
- Plant response rating (0 to 100 scale), Surinam Grass (Surinam grass; [21]): 0
- Surinam Grass plant response rating (Surinam grass; [15]): 0
- Plant response rating, Surinam Grass (Surinam grass; [22]): 0
- Surinam Grass plant response rating (Surinam grass; [16]): 0
- Crabgrass, Large plant response rating (large crabgrass [4]; [17]): 10
- Plant response rating, Crabgrass, Large (large crabgrass [4]; [18]): 10
- Crabgrass, Large plant response rating (large crabgrass [4]; [19]): 10
- Crabgrass, Large plant response rating (large crabgrass [4]; [20]): 0
- Oat, Wild plant response rating (wild oat; [15]): 0
- Oat, Wild plant response rating (wild oat; [16]): 0
- Sedge, Umbrella plant response rating [5]: 0
- Plant response rating (0 to 100 scale), Morningglory (morningglory [6]; [21]): 0
- Morningglory plant response rating (morningglory [6]; [15]): 0
- Plant response rating, Morningglory (morningglory [6]; [22]): 0
- Morningglory plant response rating (morningglory [6]; [16]): 0
- Plant response rating (0 to 100 scale), Cocklebur (cocklebur; [21]): 0
- Cocklebur plant response rating (cocklebur; [15]): 0
- Plant response rating, Cocklebur (cocklebur; [22]): 0
- Cocklebur plant response rating (cocklebur; [16]): 0
- Pigweed plant response rating (redroot pigweed; [17]): 0
- Plant response rating, Pigweed (redroot pigweed; [18]): 10
- Pigweed plant response rating (redroot pigweed; [19]): 30
- Pigweed plant response rating (redroot pigweed; [20]): 20
- Plant response rating (0 to 100 scale), Crabgrass, Large (large crabgrass [7]; [21]): 0
- Crabgrass, Large plant response rating (large crabgrass [7]; [15]): 0
- Plant response rating, Crabgrass, Large (large crabgrass [7]; [22]): 0
- Crabgrass, Large plant response rating (large crabgrass [7]; [16]): 0
- Plant response rating (0 to 100 scale), Rice (rice [8]; 125 g ai/ha, 0 is no effect, 100 is complete control): 0
- Plant response rating, Rice (rice [8]; 500 g ai/ha, visual rating, 0 = no effect, 100 = complete control): 0
- Foxtail, Giant plant response rating (giant foxtail [9]; [17]): 0
- Plant response rating, Foxtail, Giant (giant foxtail [9]; [18]): 0
- Foxtail, Giant plant response rating (giant foxtail [9]; [19]): 0
- Foxtail, Giant plant response rating (giant foxtail [9]; [20]): 0
- Plant response rating (0 to 100 scale), Pigweed (pigweed; [21]): 0
- Pigweed plant response rating (pigweed; [15]): 0
- Plant response rating, Pigweed (pigweed; [22]): 0
- Pigweed plant response rating (pigweed; [16]): 0
- Morningglory plant response rating (morningglory [10]; [17]): 0
- Plant response rating, Morningglory (morningglory [10]; [18]): 0
- Morningglory plant response rating (morningglory [10]; [19]): 0
- Morningglory plant response rating (morningglory [10]; [20]): 0
- Plant response rating (0 to 100 scale), Lambsquarters (lambsquarters; [21]): 0
- Lambsquarters plant response rating (lambsquarters; [15]): 0
- Plant response rating, Lambsquarters (lambsquarters; [22]): 0
- Lambsquarters plant response rating (lambsquarters; [16]): 50
- Plant response rating (0 to 100 scale), Corn (corn; [21]): 0
- Corn plant response rating (corn; [15]): 0
- Plant response rating, Corn (corn; [22]): 0
- Corn plant response rating (corn; [16]): 0
- Plant response rating (0 to 100 scale), Barnyardgrass (barnyardgrass [11]; [21]): 0
- Barnyardgrass plant response rating (barnyardgrass [11]; [15]): 0
- Plant response rating, Barnyardgrass (barnyardgrass [11]; [22]): 0
- Barnyardgrass plant response rating (barnyardgrass [11]; [16]): 0
- Rice plant response rating (rice [12]): 0
- Plant response rating (0 to 100 scale), Foxtail, Giant (giant foxtail [13]; [21]): 0
- Foxtail, Giant plant response rating (giant foxtail [13]; [15]): 0
- Plant response rating, Foxtail, Giant (giant foxtail [13]; [22]): 0
- Foxtail, Giant plant response rating (giant foxtail [13]; [16]): 0
- Plant response rating (0 to 100 scale), Velvetleaf (velvetleaf [14]; [21]): 0
- Velvetleaf plant response rating (velvetleaf [14]; [15]): 0
- Plant response rating, Velvetleaf (velvetleaf [14]; [22]): 0
- Velvetleaf plant response rating (velvetleaf [14]; [16]): 0
